The results in this text go back to patent US10815276B2, “Cell penetrating peptides and methods of making and using thereof” (Entrada Therapeutics, Inc., priority 2014, dated 2020).

The target of this assay is T1, Pin1 (Homo sapiens, UniProt Q13526, S16A/Y23A).
T1 construct: The full-length human S16A/Y23A mutant Pin1 was expressed and purified from E. coli; made in house
Put plainly: Pin1 binding by FA (FITC-labeled peptides). Conditions: FITC-labeled peptide, FA; read-out: KD.

Starred links: 1 amine or outer side, 2 acyl side, 3 side chain; linkers in the order of their positions; H or OH if unused. Positions of bridges follow the written chain, without caps; N, C: chain ends. Non-standard residues stand in square brackets, D forms with d. Residues, ends and D or L forms follow the SMILES beside them. Trimesoyl = O=C(c1cc(C(=O)[*:2])cc(C(=O)[*:3])c1)[*:1]; dPhe(4-CN) = N#Cc1ccc(C[C@@H](N)C(=O)O)cc1; Phe(4-F) = N[C@@H](Cc1ccc(F)cc1)C(=O)O; dPhe(3-F) = N[C@H](Cc1cccc(F)c1)C(=O)O; 2Nal = N[C@@H](Cc1ccc2ccccc2c1)C(=O)O; Pip = O=C(O)[C@@H]1CCCCN1; Dap = NC[C@H](N)C(=O)O; βAla = NCCC(=O)O; Sar = CNCC(=O)O

Experimental: FA experiments were carried out by incubating 100 nM FITC-labeled peptide with varying concentrations of protein in 20 mM HEPES (pH 7.4), 150 mM NaCl, 2 mM magnesium acetate, and 0.1% bovine serum albumin (BSA) for 2 h at room temperature. The FA values were measured on a Molecular Devices Spectramax M5 plate reader, with excitation and emission wavelengths at 485 and 525 nm, respectively. Equilibrium dissociation constants (KD) were determined by plotting the FA values as a function of protein concentration and fitting the curve to the following equation:

Usually Kd stands for the concentration at which binding is half-saturated. In the case of `C[C@@H]1NC(=O)[C@H](CCCNC(=N)N)NC(=O)[C@H](Cc2ccc3ccccc3c2)NC(=O)[C@@H]2CCCCN2C(=O)[C@@H](CC(=O)O)NC(=O)CN(C)C(=O)[C@@H]2CCCN2C(=O)c2cc3cc(c2)C(=O)NC[C@@H](C(=O)N[C@@H](CCCCN)C(N)=O)NC(=O)[C@H](CCCNC(=N)N)NC(=O)[C@H](CCCNC(=N)N)NC(=O)[C@H](CCCNC(=N)N)NC(=O)[C@H](CCCNC(=N)N)NC(=O)[C@H](Cc2ccc4ccccc4c2)NC(=O)[C@H](Cc2ccccc2)NC(=O)[C@H](CNC3=O)NC(=O)CCNC1=O` [Peptide 13, bicyclo[Tm-(Pro-Sar-D-Asp-Pip-Nal-Arg-Ala-β-Ala)-Dap-(Phe-Nal-Arg-Arg-Arg-Arg-Dap)]-Lys] (P[Sar][dD][Pip][2Nal]RA[βAla][Dap]F[2Nal]RRRR[Dap]K-NH2; linker N-9-16 via Trimesoyl; C-terminus assumed), the dissociation constant (Kd) turned out to be 2080 ± 310 nM. As for `C[C@@H]1NC(=O)[C@H](CCCNC(=N)N)NC(=O)[C@H](Cc2ccc3ccccc3c2)NC(=O)[C@@H]2CCCCN2C(=O)[C@@H]([C@H](C)O)NC(=O)[C@H](Cc2ccc(F)cc2)NC(=O)[C@@H](Cc2ccc(C#N)cc2)NC(=O)c2cc3cc(c2)C(=O)NC[C@H](NC(=O)[C@@H](Cc2ccccc2)NC1=O)C(=O)N[C@@H](Cc1ccccc1)C(=O)N[C@@H](Cc1ccc2ccccc2c1)C(=O)N[C@@H](CCCNC(=N)N)C(=O)N[C@@H](CCCNC(=N)N)C(=O)N[C@@H](CCCNC(=N)N)C(=O)N[C@@H](CCCNC(=N)N)C(=O)N[C@H](C(=O)N[C@@H](CCCCN)C(N)=O)CNC3=O` [Peptide 38, bicyclo[Tm-(D-4-CyanoPhe-Fpa-D-Thr-Pip-Nal-Arg-Ala-D-Phe)-Dap-(Phe-Nal-Arg-Arg-Arg-Arg-Dap)]-Lys] ([dPhe(4-CN)][Phe(4-F)][dT][Pip][2Nal]RA[dF][Dap]F[2Nal]RRRR[Dap]K-NH2; linker N-9-16 via Trimesoyl; C-terminus assumed), the figure is 350 ± 40 nM. As for `C[C@@H]1NC(=O)[C@H](CCCNC(=N)N)NC(=O)[C@H](Cc2ccc3ccccc3c2)NC(=O)[C@@H]2CCCCN2C(=O)[C@@H]([C@H](C)O)NC(=O)[C@H](Cc2ccc(F)cc2)NC(=O)[C@@H](Cc2cccc(F)c2)NC(=O)c2cc3cc(c2)C(=O)NC[C@H](NC(=O)[C@@H](Cc2ccccc2)NC1=O)C(=O)N[C@@H](Cc1ccccc1)C(=O)N[C@@H](Cc1ccc2ccccc2c1)C(=O)N[C@@H](CCCNC(=N)N)C(=O)N[C@@H](CCCNC(=N)N)C(=O)N[C@@H](CCCNC(=N)N)C(=O)N[C@@H](CCCNC(=N)N)C(=O)N[C@H](C(=O)N[C@@H](CCCCN)C(N)=O)CNC3=O` [Peptide 36, bicyclo[Tm-(D-3-Fpa-Fpa-D-Thr-Pip-Nal-Arg-Ala-D-Phe)-Dap-(Phe-Nal-Arg-Arg-Arg-Arg-Dap)]-Lys] ([dPhe(3-F)][Phe(4-F)][dT][Pip][2Nal]RA[dF][Dap]F[2Nal]RRRR[Dap]K-NH2; linker N-9-16 via Trimesoyl; C-terminus assumed), the figure is 390 ± 50 nM. As for `C[C@@H]1NC(=O)[C@H](CCCNC(=N)N)NC(=O)[C@H](Cc2ccc3ccccc3c2)NC(=O)[C@@H]2CCCCN2C(=O)[C@@H]([C@H](C)O)NC(=O)[C@H](Cc2ccc(F)cc2)NC(=O)[C@@H](Cc2ccccc2)NC(=O)c2cc3cc(c2)C(=O)NC[C@H](NC(=O)[C@@H](Cc2ccccc2)NC1=O)C(=O)N[C@@H](CCCNC(=N)N)C(=O)N[C@@H](Cc1ccc2ccccc2c1)C(=O)N[C@@H](CCCNC(=N)N)C(=O)N[C@@H](Cc1ccccc1)C(=O)N[C@@H](CCCNC(=N)N)C(=O)N[C@@H](CCCNC(=N)N)C(=O)N[C@H](C(=O)N[C@@H](CCCCN)C(N)=O)CNC3=O` [Peptide 44, bicyclo[Tm-(D-Phe-Fpa-D-Thr-Pip-Nal-Arg-Ala-D-Phe)-Dap-(Arg-Nal-Arg-Phe-Arg-Arg-Dap)]-Lys] ([dF][Phe(4-F)][dT][Pip][2Nal]RA[dF][Dap]R[2Nal]RFRR[Dap]K-NH2; linker N-9-16 via Trimesoyl; C-terminus assumed), the figure is 450 ± 50 nM; as for `C[C@H]1NC(=O)[C@H](Cc2ccc(O)cc2)NC(=O)[C@H](CCCNC(=N)N)NC(=O)[C@H](Cc2ccc3ccccc3c2)NC(=O)[C@@H]2CCCCN2C(=O)[C@@H](CC(=O)O)NC(=O)CN(C)C(=O)[C@@H]2CCCN2C(=O)c2cc3cc(c2)C(=O)NC[C@H](NC1=O)C(=O)N[C@@H](Cc1ccccc1)C(=O)N[C@@H](Cc1ccc2ccccc2c1)C(=O)N[C@@H](CCCNC(=N)N)C(=O)N[C@@H](CCCNC(=N)N)C(=O)N[C@@H](CCCNC(=N)N)C(=O)N[C@@H](CCCNC(=N)N)C(=O)N[C@H](C(=O)N[C@@H](CCCCN)C(N)=O)CNC3=O` [Peptide 17, bicyclo[Tm-(Pro-Sar-D-Asp-Pip-Nal-Arg-Tyr-D-Ala)-Dap-(Phe-Nal-Arg-Arg-Arg-Arg-Dap)]-Lys] (P[Sar][dD][Pip][2Nal]RY[dA][Dap]F[2Nal]RRRR[Dap]K-NH2; linker N-9-16 via Trimesoyl; C-terminus assumed), 2170 ± 550 nM; as for `CC(C)[C@H]1NC(=O)c2cc3cc(c2)C(=O)NC[C@H](NC(=O)[C@@H](C)NC(=O)[C@H](C)NC(=O)[C@H](CCCNC(=N)N)NC(=O)[C@H](Cc2ccc4ccccc4c2)NC(=O)[C@@H]2CCCCN2C(=O)[C@@H]([C@H](C)O)NC(=O)[C@H](Cc2ccc(F)cc2)NC1=O)C(=O)N[C@@H](Cc1ccccc1)C(=O)N[C@@H](Cc1ccc2ccccc2c1)C(=O)N[C@@H](CCCNC(=N)N)C(=O)N[C@@H](CCCNC(=N)N)C(=O)N[C@@H](CCCNC(=N)N)C(=O)N[C@@H](CCCNC(=N)N)C(=O)N[C@H](C(=O)N[C@@H](CCCCN)C(N)=O)CNC3=O` [Peptide 34, bicyclo[Tm-(D-Val-4-Fpa-D-Thr-Pip-Nal-Arg-Ala-D-Ala)-Dap-(Phe-Nal-Arg-Arg-Arg-Arg-Dap)]-Lys] ([dV][Phe(4-F)][dT][Pip][2Nal]RA[dA][Dap]F[2Nal]RRRR[Dap]K-NH2; linker N-9-16 via Trimesoyl; C-terminus assumed), 1070 ± 160 nM. Take “bicyclo[Tm-(D-4-Phe-Fpa-D-Ile-Pip-Nal-Arg-Ala-D-Phe)-Dap-(Phe-Nal-Arg-Arg-Arg-Arg-Dap)]-Lys [Peptide 39]”: the Kd came out at 460 ± 170 nM. As for `CN1CC(=O)N[C@H](CC(=O)O)C(=O)N2CCCC[C@H]2C(=O)N[C@@H](Cc2ccc3ccccc3c2)C(=O)N[C@@H](CCCNC(=N)N)C(=O)N[C@@H](CCCNC(=N)N)C(=O)N[C@H](CC(=O)O)C(=O)N[C@H]2CNC(=O)c3cc(cc(c3)C(=O)N3CCC[C@H]3C1=O)C(=O)NC[C@@H](C(=O)N[C@@H](CCCCN)C(N)=O)NC(=O)[C@H](CCCNC(=N)N)NC(=O)[C@H](CCCNC(=N)N)NC(=O)[C@H](CCCNC(=N)N)NC(=O)[C@H](CCCNC(=N)N)NC(=O)[C@H](Cc1ccc3ccccc3c1)NC(=O)[C@H](Cc1ccccc1)NC2=O` [Peptide 25, bicyclo[Tm-(Pro-Sar-D-Asp-Pip-Nal-Arg-Arg-D-Asp)-Dap-(Phe-Nal-Arg-Arg-Arg-Arg-Dap)]-Lys] (P[Sar][dD][Pip][2Nal]RR[dD][Dap]F[2Nal]RRRR[Dap]K-NH2; linker N-9-16 via Trimesoyl; C-terminus assumed), the figure is 4600 ± 1420 nM.
